pKi: −log10 of the molar value. Where a name gives a salt, the structure may show the parent alone.
Key:
Serotonin 2-Receptor [1] = biological target: T1, Serotonin 2-Receptor (Rattus norvegicus, UniProt P14842); assay: Antagonistic activity on serotonin 2-receptor: inhibition of the serotonin-induced increase in blood pressure in anesthetized rats; format: in vivo; conditions: SD-SLC male rat, 10 mg/kg p.o.; after 180 minutes from the administration; inhibition of blood pressure increase by serotonin 300 μg/kg i.v.
T1 construct: from tissue; host or cells: intact anesthetized SD-SLC male rat (vascular response)
Experimental: A test compound dissolved in purified water was orally administered to an SD-SLC male rat at a dose of 10 mg/kg. After 30 minutes from the administration, the rat was anesthetized with urethane (1 g/kg, i.p.) and α-Chloralose (80 mg/kg, i.p.). A polyethylene cannula was inserted into the carotid artery, and the blood pressure was recorded on a polygraph by using a pressure transducer. After 60 minutes or 180 minutes from the administration of the test compound, 300 μg/kg of serotonin was intravenously injected, and an increase in blood pressure was observed. Serotonin 2 (hereinafter referred to as […]) antagonistic activity of the test compound was calculated as a percentage of inhibition of an increase in blood pressure induced by […]. The inhibitory effect of the test compound wa compared with that of vehicle solution treated group.

ddy male mice = assay: Toxicity in mice, repeated oral administration; format: in vivo, mouse; conditions: ddy male mice, 200 mg/kg p.o. once a day for consecutive 4 days; dead animals per group
Experimental: A test compound dissolved or suspended in a 1% methyl cellulose solution was orally administered to ddy male mice (4 or 5 mice per group) at a dose of 200 mg/kg once a day for consecutive 4 days. The number of dead animals per group was counted on the day next to the final administration day. As a control, 10 mλ/kg of 1% methyl cellulose solution was orally administered.

[2] = tested on: Sympathetic Nerve α1 -Receptor; assay: Antagonistic activity on sympathetic nerve α1-receptor: inhibition of the phenylephrine-induced increase in blood pressure in anesthetized rats; format: in vivo; conditions: SD-SLC male rat, 10 mg/kg p.o.; after 180 minutes from the administration; inhibition of blood pressure increase by phenylephrine 100 μg/kg i.v.
Serotonin 2-Receptor [3] = biological target: T1, Serotonin 2-Receptor; assay: Binding activity to serotonin 2-receptor, 3H-Ketanserin, rat frontal cortex membrane preparation; conditions: calculated from the 50% inhibitory concentration, hydrochloride, read-out: dissociation constant for serotonin 2-receptor
Experimental: A male SD rat was decapitated under anesthesia, and the frontal cortex was removed to obtain a membrane preparation. ^3 H-Ketanserin and Methysergide were used as a labelled ligand and a non-specific binding reagent, respectively. These reagents and a test compound thereof were dissolved in a 5% methanol tris-buffer solution. After incubation, this solution was filtered by suction through a GF/B glass filter. Radioactivity of ^3 H-Ketanserin collected on the filter was measured with a liquid scintillation counter. A Scatchard plot was prepared from the resulting radioactivity values, and a dissociation constant of serotonin 2-receptor and a receptor density of the membrane preparation were obtained. Further, from the receptor-binding inhibition curve of the compound is obtained a 50% inhibitory concentration, and a dissociation constant indicative of the binding affinity to serotonin 2-receptor was calculated.

Mongrel dogs [4] = assay: Acute cardiac infarction model: LDA ligature and reperfusion in dogs; format: in vivo; conditions: dog, hydrochloride 1 mg/kg/hr intravenous drip, versus control group
Experimental: Mongrel dogs (body weight: 8 to 20 kg) under anesthesia were ventilated artificially and underwent a left thracotomy. […] A polyethylene cannula was inserted into the femoral artery, and the blood pressure and heart rate were recorded A cannula was inserted into the […] of a drug and also into the carotid artery from which a blood sample was to be taken. After stabilization period of the test preparation, LDA was ligated with a clamp. After 2 hours from the ligature, the clamp was released for reperfusion. After observation for the following 4 hours, the heart was excised. […] Then, the heart was washed and sliced at 1 cm intervals from the apex in the direction vertical to the longer axis. Each slice at the left ventricle was divided into a part which was in risk of cardiac infarction indicated by Evans' Blue stain (hereinafter referred to as risk area) and a normal area, and each area was weighed. The weight of the left ventricle (the sum of the risk area and the normal area) and that of the risk area of each slice were individually added up to obtain the weight of the whole left ventricle and the total weight of the risk area. Further, of each slice, the area of the risk area which was not stained with Evans' Blue and that of a cardiac infarction area within the risk area which remained white, i.e., which was stained neither in blue with Evans' Blue nor in red with triphenyltetrazolium chloride, were measured to obtain a ratio of cardiac infarction part to the whole left ventricle (infarction size). […] The experiment was conducted for the following groups.

Mongrel dogs [5] = assay: Angina pectoris model: partial LDA occlusion with cyclic coronary flow reduction in dogs; format: in vivo; conditions: dog, maleate 0.1 mg/kg i.v., compared with before administration
Experimental: Mongrel dogs (body weight: 8 to 20 kg) under anesthesia with pentobarbital (30 mg/kg, i.v.) were ventilated artificially and underwent a left thoracotomy. LDA was separated from connected tissues. A silicone tube for partial occlusion was placed around the LDA, and a probe for blood flow rate measurement was fixed in the neighborhood. The blood flow rate was measured with a pulse Doppler blood flow meter. A cannula was inserted into a branch distal to the occlusion site of the left coronary artery, and the coronary blood pressure was measured. A polyethylene cannula was inserted into the femoral artery, and the systemic blood pressure and heart rate were recorded. A cannula was inserted to the femoral vein for administration of a drug.
The effect of the drug was expressed in terms of frequency of the periodic reduction of blood flow rate.

T1 sequence (P14842 whole entry): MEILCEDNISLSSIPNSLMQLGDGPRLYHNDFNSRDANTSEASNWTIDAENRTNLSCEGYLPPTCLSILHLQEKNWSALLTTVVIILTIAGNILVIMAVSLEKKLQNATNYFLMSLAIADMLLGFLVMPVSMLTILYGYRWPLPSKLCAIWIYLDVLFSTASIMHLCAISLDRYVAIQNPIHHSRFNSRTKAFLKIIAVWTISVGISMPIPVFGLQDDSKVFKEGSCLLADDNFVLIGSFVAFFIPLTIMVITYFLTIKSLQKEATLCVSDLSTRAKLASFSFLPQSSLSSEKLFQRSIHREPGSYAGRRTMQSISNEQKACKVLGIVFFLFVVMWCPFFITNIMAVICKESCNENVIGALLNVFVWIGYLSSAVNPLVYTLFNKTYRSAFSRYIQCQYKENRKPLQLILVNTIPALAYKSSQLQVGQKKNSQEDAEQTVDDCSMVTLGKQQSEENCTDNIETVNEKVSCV

Row | Structure (SMILES) | Antagonistic Activity 5-HT2 (%) (Serotonin 2-Receptor [1]) | Toxicity (Death Rate) (ddy male mice) | Antagonistic Activity α1 (%) [2] | pKi (Serotonin 2-Receptor [3]) | effect on myocardial infarction size (in words) (Mongrel dogs [4]) | effect on frequency of the cyclic coronary flow reduction (in words) (Mongrel dogs [5])
1 | O=C(c1ccc(F)cc1)C1CCN(CCn2nc3ccccn3c2=O)CC1 [Example 49, 2-[2-[4-(4-Fluorobenzoyl)piperidin-1-yl]ethyl]-1,2,4-triazolo[4,3-a]-pyridin-3(2H)-one Hydrochloride Hemihydrate] | 82% | 0/5 | 3% | – | – | –
2 | O=C(c1ccc(F)cc1)C1CCN(CCn2c(=O)nc3n(c2=O)CCCC3)CC1 [Example 1, 3-[2-[4-(4-Fluorobenzoyl)piperidin-1-yl]ethyl]-6,7,8,9-tetrahydro-2H-pyrido[1,2-a]-1,3,5-triazine-2,4(3H)-dione] | – | – | – | 7.82 | significantly reduced | significantly reduces

Reference: patent publication US5232924A, “Heterocyclic compound having serotonine 2-receptor antagonistic activity” (Daiichi Pharmaceutical Co., Ltd., priority 1989, dated 1993)
